# Test results published in patent US20260027068A1, “METHODS OF ADM[…]-KETAMINE” (Perception Neuroscience, Inc., priority 2022, published 2026).
# Experiments:
# [1] = Systolic blood pressure (vital signs)
# Method: The Investigational Medicinal Product (IMP) R(−)-ketamine hydrochloride in sterile water for intravenous injection was investigated as an […] treatment of TRD. The International Union of Pure and Applied Chemistry (IUPAC) name is of the IMP is (2R)-2-(2-chlorophenyl)-2-(methylamino)cyclohexan-1-one. Subjects received the solution at either 30 mg or 60 mg dose, or a placebo. The IMP or placebo was administered on Day 1 as a single IV infusion via an electronic infusion pump over 40 minutes. The duration of study participation for each subject was up to 29 days including a screening period, a 3-day in-clinic visit, and 2 follow-up visits. 101 subjects were enrolled in approximately 20 study centers in the EU and the US.
# Tympanic or temporal temperature, heart rate, blood pressure (SBP/DBP), respiratory rate, and SpO2 were assessed. Blood pressure and pulse measurements will be assessed with a completely automated device while the subject is supine or semi-supine. Manual techniques will be used only if an automated device is not available. Blood pressure and pulse measurements should be preceded by at least 5 minutes of rest for the subject in a quiet setting without distractions (e.g., television, cell phones). An abnormal blood pressure value at screening may be repeated once after 5 minutes of relaxation to determine the subject's eligibility. Blood pressure was recorded using the same arm and position (supine or semi-supine) throughout the study, where possible. Vital signs (to be taken before blood collection for laboratory tests) consisted of 1 pulse and 3 blood pressure measurements (3 consecutive blood pressure readings will be recorded at intervals of at least 1 minute). The average of the 3 blood pressure readings was recorded in the CRF. A pulse oximeter was used to measure peripheral capillary oxygen saturation (SpO2) continuously from pre-dose until 4-hours post-dose. A pulse oximeter was clipped onto the finger or foot of the subject, and light will be sent through the finger or foot and measured on the other side.
# In these tables, baseline value is defined as the last non-missing value prior to study drug administration.
# [2] = Phase 1 single ascending dose plasma pharmacokinetics of 40-minute IV infusion of R(−)-ketamine and its metabolites; conditions: for Tmax: all dose levels 5 mg to 150 mg; for AUC(0-inf) / Cmax / AUC(0-t): iv
# Method: This was a Phase 1 randomized, placebo-controlled, double-blind, single dose study conducted at one center. […] The pharmacokinetic (PK) population was 36 subjects, with 12 additional subjects receiving placebo. […] Subjects were male or female healthy subjects, 18 to 65 years of age. […] Cohort 1 was dosed at 5 mg, followed by Cohort 2 at 15 mg, Cohort 3 at 30 mg, Cohort 4 at 60 mg, Cohort 5 at 100 mg, and Cohort 6 at 150 mg R(−)-ketamine. […] In addition to the safety and tolerability data, the study also evaluated the dose-related PK of each 40-minute IV infusion of R(−)-ketamine.
# To evaluate the pharmacokinetics of R(−)-ketamine, blood was drawn from subjects for PK analysis at the following sampling times: pre-dose (−30 minutes); and from the start of infusion (5, 10, and 15 minutes [±1 minute], 30 minutes [±5 minutes], 40 minutes [immediately prior to infusion completion], 1, 1.5, 2, and 3 hours [±5 minutes], 4 and 8 hours [±10 minutes], 12 and 24 hours [±15 minutes]).
# Plasma PK parameters of R(−)-ketamine and its metabolites (norketamine, 6-hydroxynorketamine, and dehydronorketamine) evaluated on include the following: • Maximum plasma concentration (Cmax), • Time to Cmax (Tmax), • Area under the plasma concentration curve (AUC0-t, AUC0-∞) • Elimination rate constant (λz), • Half-live (t½) • Clearance (CL, P R(−)-ketamine only), • Volume of distribution (Vz, R(−)-ketamine only), and • Metabolite to parent ratios (area under curve [AUC] and Cmax).
# The dose proportionality was assessed both visually and statistically using calculated Cmax and AUC values. […] Continuous variables: Descriptive statistics included the number of non-missing values (n), arithmetic mean, standard deviation (SD), median, minimum, and maximum values. […] For PK concentration data, the number of non-missing values, number of below limit of quantification (BLQ) values, arithmetic mean, SD, median, minimum, maximum, coefficient of variation (CV %), geometric mean, and geometric CV (geo CV %) values are presented. For PK parameter data, the number of non-missing values, arithmetic mean, SD, median, minimum, maximum, CV %, geometric mean, and geometric CV (geo CV %) values are presented.
# Intravenous administration of allocated blinded study drug (Morning, Day 1) was infused over 40 minutes. Blood collection for plasma PK analysis occurred at infusion 5, 10, 15, 30, 40, 60, and 90 minutes, and 2, 3, 4, 8, and 12 hours after the start of infusion.
# Plasma concentrations of R(−)-ketamine and its metabolites norketamine, 6-hydroxynorketamine, and dehydronorketamine were determined using a suitable validated analytical method with a lower limit of quantitation (LOQ) of 1 ng/mL.
# The linearity of the increase in exposure with respect to the increasing dose administered was evaluated for Cmax and AUC for R(−)-ketamine and its metabolites (norketamine, 6-hydroxynorketamine and dehydronorketamine). […] The power model was used to estimate the slope parameter and the 90% confidence intervals for the slope.
# [3] = both, human, plasma, intravenous
structure (smiles),measurement,setting,value
"CN[C@@]1(c2ccccc2Cl)CCCCC1=O.Cl [R(−)-ketamine, (2R)-2-(2-chlorophenyl)-2-(methylamino)cyclohexan-1-one]","Subjects with change from baseline systolic blood pressure >40 mmHg, number",[1]; 30 mg,0 n
same,"Subjects with change from baseline systolic blood pressure >40 mmHg, percent",[1]; 30 mg,0.0%
same,"Subjects with post-baseline systolic blood pressure >180 mmHg, number",[1]; 30 mg,0 n
same,"Subjects with post-baseline systolic blood pressure >180 mmHg, percent",[1]; 30 mg,0.0%
same,Systolic blood pressure: Mean,"[1]; 30 mg, Day 1, 15 minutes",116.8 mmHg
same,Systolic blood pressure: Median,"[1]; 30 mg, Day 1, 15 minutes",119.0 mmHg
same,Systolic blood pressure: Mean,"[1]; 30 mg, Day 1, 40 minutes",120.1 mmHg
same,Systolic blood pressure: Median,"[1]; 30 mg, Day 1, 40 minutes",122.0 mmHg
same,Systolic blood pressure: Mean,"[1]; 30 mg, Day 1, 60 minutes",117.7 mmHg
same,Systolic blood pressure: Median,"[1]; 30 mg, Day 1, 60 minutes",119.5 mmHg
same,Systolic blood pressure: Mean,"[1]; 30 mg, Day 1, 2 hours",118.7 mmHg
same,Systolic blood pressure: Median,"[1]; 30 mg, Day 1, 2 hours",122.0 mmHg
same,Systolic blood pressure: Mean,"[1]; 30 mg, Day 1, 4 hours",119.0 mmHg
same,Systolic blood pressure: Median,"[1]; 30 mg, Day 1, 4 hours",120.0 mmHg
same,Systolic blood pressure: Mean,"[1]; 30 mg, Day 1, 6 hours",118.0 mmHg
same,Systolic blood pressure: Median,"[1]; 30 mg, Day 1, 6 hours",120.0 mmHg
same,Systolic blood pressure: Mean,"[1]; 30 mg, Day 2 - Discharge",118.0 mmHg
same,Systolic blood pressure: Median,"[1]; 30 mg, Day 2 - Discharge",120.0 mmHg
same,Systolic blood pressure: Mean,"[1]; 30 mg, Day 8",119.2 mmHg
same,Systolic blood pressure: Median,"[1]; 30 mg, Day 8",121.0 mmHg
same,Systolic blood pressure: Mean,"[1]; 30 mg, Day 15",123.4 mmHg
same,Systolic blood pressure: Median,"[1]; 30 mg, Day 15",122.0 mmHg
same,"Systolic blood pressure: Change from Baseline, Mean","[1]; 30 mg, to Day 1, 15 minutes",1.2 mmHg
same,"Systolic blood pressure: Change from Baseline, Median","[1]; 30 mg, to Day 1, 15 minutes",−1.0 mmHg
same,"Systolic blood pressure: Change from Baseline, Mean","[1]; 30 mg, to Day 1, 40 minutes",2.0 mmHg
same,"Systolic blood pressure: Change from Baseline, Median","[1]; 30 mg, to Day 1, 40 minutes",0.0 mmHg
same,"Systolic blood pressure: Change from Baseline, Mean","[1]; 30 mg, to Day 1, 60 minutes",2.4 mmHg
same,"Systolic blood pressure: Change from Baseline, Median","[1]; 30 mg, to Day 1, 60 minutes",2.5 mmHg
same,"Systolic blood pressure: Change from Baseline, Mean","[1]; 30 mg, to Day 1, 2 hours",0.6 mmHg
same,"Systolic blood pressure: Change from Baseline, Median","[1]; 30 mg, to Day 1, 2 hours",0.0 mmHg
same,"Systolic blood pressure: Change from Baseline, Mean","[1]; 30 mg, to Day 1, 4 hours",0.9 mmHg
same,"Systolic blood pressure: Change from Baseline, Median","[1]; 30 mg, to Day 1, 4 hours",−1.0 mmHg
same,"Systolic blood pressure: Change from Baseline, Mean","[1]; 30 mg, to Day 1, 6 hours",−0.1 mmHg
same,"Systolic blood pressure: Change from Baseline, Median","[1]; 30 mg, to Day 1, 6 hours",−2.0 mmHg
same,"Systolic blood pressure: Change from Baseline, Mean","[1]; 30 mg, to Day 2 - Discharge",−0.1 mmHg
same,"Systolic blood pressure: Change from Baseline, Median","[1]; 30 mg, to Day 2 - Discharge",−1.0 mmHg
same,"Systolic blood pressure: Change from Baseline, Mean","[1]; 30 mg, to Day 8",1.2 mmHg
same,"Systolic blood pressure: Change from Baseline, Median","[1]; 30 mg, to Day 8",1.0 mmHg
same,"Systolic blood pressure: Change from Baseline, Mean","[1]; 30 mg, to Day 15",5.2 mmHg
same,"Systolic blood pressure: Change from Baseline, Median","[1]; 30 mg, to Day 15",3.0 mmHg
same,"Subjects with change from baseline systolic blood pressure >40 mmHg, number",[1]; 60 mg,1 n
same,"Subjects with change from baseline systolic blood pressure >40 mmHg, percent",[1]; 60 mg,2.9%
same,"Subjects with post-baseline systolic blood pressure >180 mmHg, number",[1]; 60 mg,0 n
same,"Subjects with post-baseline systolic blood pressure >180 mmHg, percent",[1]; 60 mg,0.0%
same,Systolic blood pressure: Mean,"[1]; 60 mg, Day 1, 15 minutes",123.6 mmHg
same,Systolic blood pressure: Median,"[1]; 60 mg, Day 1, 15 minutes",124.5 mmHg
same,Systolic blood pressure: Mean,"[1]; 60 mg, Day 1, 40 minutes",123.0 mmHg
same,Systolic blood pressure: Median,"[1]; 60 mg, Day 1, 40 minutes",122.0 mmHg
same,Systolic blood pressure: Mean,"[1]; 60 mg, Day 1, 60 minutes",123.9 mmHg
same,Systolic blood pressure: Median,"[1]; 60 mg, Day 1, 60 minutes",124.0 mmHg
same,Systolic blood pressure: Mean,"[1]; 60 mg, Day 1, 2 hours",119.0 mmHg
same,Systolic blood pressure: Median,"[1]; 60 mg, Day 1, 2 hours",120.0 mmHg
same,Systolic blood pressure: Mean,"[1]; 60 mg, Day 1, 4 hours",119.1 mmHg
same,Systolic blood pressure: Median,"[1]; 60 mg, Day 1, 4 hours",121.0 mmHg
same,Systolic blood pressure: Mean,"[1]; 60 mg, Day 1, 6 hours",119.7 mmHg
same,Systolic blood pressure: Median,"[1]; 60 mg, Day 1, 6 hours",119.5 mmHg
same,Systolic blood pressure: Mean,"[1]; 60 mg, Day 2 - Discharge",120.8 mmHg
same,Systolic blood pressure: Median,"[1]; 60 mg, Day 2 - Discharge",122.0 mmHg
same,Systolic blood pressure: Mean,"[1]; 60 mg, Day 8",123.2 mmHg
same,Systolic blood pressure: Median,"[1]; 60 mg, Day 8",122.0 mmHg
same,Systolic blood pressure: Mean,"[1]; 60 mg, Day 15",120.3 mmHg
same,Systolic blood pressure: Median,"[1]; 60 mg, Day 15",121.0 mmHg
same,"Systolic blood pressure: Change from Baseline, Mean","[1]; 60 mg, to Day 1, 15 minutes",4.4 mmHg
same,"Systolic blood pressure: Change from Baseline, Median","[1]; 60 mg, to Day 1, 15 minutes",1.5 mmHg
same,"Systolic blood pressure: Change from Baseline, Mean","[1]; 60 mg, to Day 1, 40 minutes",4.9 mmHg
same,"Systolic blood pressure: Change from Baseline, Median","[1]; 60 mg, to Day 1, 40 minutes",3.0 mmHg
same,"Systolic blood pressure: Change from Baseline, Mean","[1]; 60 mg, to Day 1, 60 minutes",5.3 mmHg
same,"Systolic blood pressure: Change from Baseline, Median","[1]; 60 mg, to Day 1, 60 minutes",5.0 mmHg
same,"Systolic blood pressure: Change from Baseline, Mean","[1]; 60 mg, to Day 1, 2 hours",0.9 mmHg
same,"Systolic blood pressure: Change from Baseline, Median","[1]; 60 mg, to Day 1, 2 hours",1.0 mmHg
same,"Systolic blood pressure: Change from Baseline, Mean","[1]; 60 mg, to Day 1, 4 hours",1.0 mmHg
same,"Systolic blood pressure: Change from Baseline, Median","[1]; 60 mg, to Day 1, 4 hours",0.0 mmHg
same,"Systolic blood pressure: Change from Baseline, Mean","[1]; 60 mg, to Day 1, 6 hours",1.4 mmHg
same,"Systolic blood pressure: Change from Baseline, Median","[1]; 60 mg, to Day 1, 6 hours",2.0 mmHg
same,"Systolic blood pressure: Change from Baseline, Mean","[1]; 60 mg, to Day 2 - Discharge",2.7 mmHg
same,"Systolic blood pressure: Change from Baseline, Median","[1]; 60 mg, to Day 2 - Discharge",1.0 mmHg
same,"Systolic blood pressure: Change from Baseline, Mean","[1]; 60 mg, to Day 8",5.0 mmHg
same,"Systolic blood pressure: Change from Baseline, Median","[1]; 60 mg, to Day 8",2.0 mmHg
same,"Systolic blood pressure: Change from Baseline, Mean","[1]; 60 mg, to Day 15",2.1 mmHg
same,"Systolic blood pressure: Change from Baseline, Median","[1]; 60 mg, to Day 15",0.0 mmHg
same,Earliest timepoint at which concentrations were quantifiable in all subjects,"[2]; after start of infusion, LOQ 1 ng/mL",5 min
same,Vd,[2]; [3],345 to 921 L
same,clearance,[2]; [3],1280 to 1630 mL/min
same,half-life,[2]; [3],184 to 433 min
same,Tmax,"[2]; both, human, plasma, intravenous, Median plasma Tmax",40 min
same,Tmax,"[2]; both, human, plasma, intravenous, Plasma Tmax range",15 to 40 min
same,AUC(0-inf),"[2]; both, human, plasma, 5 mg",64 ng·h/mL
same,Cmax,"[2]; both, human, plasma, 5 mg",33.9 ng/mL
same,AUC(0-t),"[2]; both, human, plasma, 5 mg, Arithmetic mean AUC0-24h, 5 mg R(−)-ketamine IV",63.5 ng·h/mL
same,AUC(0-t),"[2]; both, human, plasma, 5 mg, Arithmetic mean AUC0-t, 5 mg R(−)-ketamine IV",57.5 ng·h/mL
same,AUC(0-inf),"[2]; both, human, plasma, 150 mg",1820 ng·h/mL
same,Cmax,"[2]; both, human, plasma, 150 mg",780 ng/mL
same,AUC(0-t),"[2]; both, human, plasma, 150 mg, Arithmetic mean AUC0-24h, 150 mg R(−)-ketamine IV",1720 ng·h/mL
same,AUC(0-t),"[2]; both, human, plasma, 150 mg, Arithmetic mean AUC0-t, 150 mg R(−)-ketamine IV",1720 ng·h/mL
